Measurements taken from ChEMBL document CHEMBL5625227, “Discovery and optimization of 2,3-diaryl-1,3-thiazolidin-4-one-based derivatives as potent and selective cytotoxic agents with anti-inflammatory activity” (Eur J Med Chem, 2023).
Active and inactive are the calls of the source. The calls are words filed in the database; no cut-off is given here.

Experiments:
[1] = Selectivity index, ratio of IC50 for cytotoxicity against human MRC5 cells to IC50 for cytotoxicity against human MCF7 cells; conditions: MRC5 cells versus MCF7 cells
[2] = Acute ulcerogenic activity in Sprague-Dawley male rat assessed as incidence of ulcer/10 animal at 50 mg/kg/day, po administered for 3 days; type: toxicity, organism-based; conditions: in vivo, 72 h, time 3 day
[3] = organism: Sus scrofa; experiment: Inhibition of porcine brain tubulin polymerization at 1 uM by fluorescence-based tubulin polymerization assay
[4] = Acute ulcerogenic activity in Sprague-Dawley male rat assessed as average number of ulcers at 50 mg/kg/day, po administered for 3 days; type: toxicity, organism-based; conditions: in vivo, 72 h, time 3 day
[5] = system: HT-29; experiment: Anticlonogenic activity against human HT-29 cells assessed as reduction in number of colonies at 0.025 uM incubated for 24 hrs by clonogenic survival assay; type: functional, cell-based
[6] = system: HT-29; experiment: Induction of apoptosis in human HT-29 cells assessed as accumulation of cells at viable stage at 0.025 uM incubated for 24 hrs by Annexin V-FITC/propidium iodide staining based flow cytometry analysis (reference value: 91.7%); type: functional
[7] = Selectivity index, ratio of IC50 for cytotoxicity against human MRC5 cells to IC50 for cytotoxicity against human HT-29 cells; conditions: MRC5 cells versus HT-29 cells
[8] = system: HT-29; experiment: Induction of apoptosis in human HT-29 cells assessed as accumulation of cells at early apoptotic stage at 0.025 uM incubated for 24 hrs by Annexin V-FITC/propidium iodide staining based flow cytometry analysis (reference value: 0.1%); type: functional
[9] = system: HT-29; experiment: Anti-migration activity in human HT-29 cells assessed as suppression in cell migration at 0.025 uM incubated 48 hrs by wound-healing assay; type: functional, cell-based
[10] = Acute ulcerogenic activity in Sprague-Dawley male rat assessed as change in normal gastric mucosa with mild congestion of the blood vessels in the submucosa at 50 mg/kg/day, po administered for 3 days by hematoxylin and eosin staining method; type: toxicity, organism-based, Stomach; conditions: in vivo, 72 h, time 3 day
[11] = molecular target: T1, Prostaglandin G/H synthase 1 (Ovis aries, UniProt P05979); experiment: Inhibition of ovine COX-1
T1 sequence (P05979 whole entry): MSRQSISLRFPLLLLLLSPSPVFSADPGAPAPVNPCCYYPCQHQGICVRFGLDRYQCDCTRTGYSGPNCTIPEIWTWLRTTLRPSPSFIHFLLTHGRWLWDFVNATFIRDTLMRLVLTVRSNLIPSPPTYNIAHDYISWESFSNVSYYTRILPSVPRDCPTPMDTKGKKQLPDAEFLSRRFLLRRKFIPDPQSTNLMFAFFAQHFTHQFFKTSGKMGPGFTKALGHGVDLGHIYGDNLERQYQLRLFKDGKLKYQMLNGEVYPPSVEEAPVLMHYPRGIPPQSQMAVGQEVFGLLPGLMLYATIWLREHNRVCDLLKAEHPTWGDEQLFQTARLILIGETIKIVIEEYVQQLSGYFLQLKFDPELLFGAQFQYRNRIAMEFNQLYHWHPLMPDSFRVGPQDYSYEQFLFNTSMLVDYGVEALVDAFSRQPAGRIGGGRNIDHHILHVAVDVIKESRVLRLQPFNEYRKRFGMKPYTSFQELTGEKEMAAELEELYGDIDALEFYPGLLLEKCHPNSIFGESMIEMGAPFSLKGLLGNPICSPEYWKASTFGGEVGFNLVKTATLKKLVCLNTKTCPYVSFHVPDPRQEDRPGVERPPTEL

[12] = system: HT-29; experiment: Cytotoxicity against human HT-29 cells assessed as inhibition in cell growth incubated for 72 hrs by MTT assay; type: functional, cell-based; conditions: HT-29, 72 h
[13] = system: Ehrlich; experiment: Antitumor activity against mouse Ehrlich solid carcinoma cells bearing adult male swiss albino mouse assessed as decrease in tumor volume at 50 mg/kg, po administered every other day and observed at 13 days; type: functional, organism-based; conditions: time 13.0 day
[14] = system: HT-29; experiment: Induction of apoptosis in human HT-29 cells assessed as accumulation of cells at late apoptotic stage at 0.025 uM incubated for 24 hrs by Annexin V-FITC/propidium iodide staining based flow cytometry analysis (reference value: 0.2%); type: functional
[15] = system: Ehrlich; experiment: Antitumor activity against mouse Ehrlich solid carcinoma cells bearing adult male swiss albino mouse assessed as decrease in tumor volume at 50 mg/kg, po administered every other day and observed at 5 days; type: functional, organism-based; conditions: time 5.0 day
[16] = Cytotoxicity against human MRC5 cells assessed as inhibition in cell growth incubated for 72 hrs by MTT assay; type: toxicity, cell-based
[17] = Selectivity index, ratio of IC50 for cytotoxicity against human MRC5 cells to IC50 for cytotoxicity against human A2780 cells; conditions: MRC5 cells versus A2780 cells
[18] = system: Rattus norvegicus; experiment: Antiinflammatory activity against carrageenan-induced paw edema Sprague-Dawley rat model assessed as inhibition of paw edema by measuring edema thickness at 50 mg/kg, po measured after 5 hrs (reference value: 1.39 +/- 0.11 mm); type: functional
[19] = system: Ehrlich; experiment: Antitumor activity against mouse Ehrlich solid carcinoma cells bearing adult male swiss albino mouse assessed as decrease in tumor weight at 50 mg/kg, po administered every other day and observed at 14 days; type: functional, organism-based; conditions: time 14.0 day
[20] = system: HT-29; experiment: Induction of apoptosis in human HT-29 cells assessed as accumulation of cells at necrotic stage at 0.025 uM incubated for 24 hrs by Annexin V-FITC/propidium iodide staining based flow cytometry analysis (reference value: 8.1%); type: functional
[21] = system: Ehrlich; experiment: Antitumor activity against mouse Ehrlich solid carcinoma cells bearing adult male swiss albino mouse assessed as tumor growth inhibition at 50 mg/kg, po administered every other day and observed at 13 days relative to control; type: functional; conditions: 312 h, time 13 day, read-out: TGI
[22] = system: Rattus norvegicus; experiment: Antiinflammatory activity against carrageenan-induced paw edema Sprague-Dawley rat model assessed as inhibition of paw edema by measuring edema thickness at 50 mg/kg, po measured after 1 hr (reference value: 0.71 +/- 0.03 mm); type: functional
[23] = Acute ulcerogenic activity in Sprague-Dawley male rat assessed as average severity of ulcers at 50 mg/kg/day, po administered for 3 days; type: toxicity, organism-based; conditions: in vivo, 72 h, time 3 day
[24] = system: Rattus norvegicus; experiment: Antiinflammatory activity against carrageenan-induced paw edema Sprague-Dawley rat model assessed as inhibition of inflammation at 50 mg/kg, po after 3 hrs relative to control; type: functional; parameters: scale not given: the % may be the effect or the level left
[25] = system: Ehrlich; experiment: Antitumor activity against mouse Ehrlich solid carcinoma cells bearing adult male swiss albino mouse assessed as decrease in tumor volume at 50 mg/kg, po administered every other day and observed at 9 days; type: functional, organism-based; conditions: time 9.0 day
[26] = system: MCF7; experiment: Cytotoxicity against human MCF7 cells assessed as inhibition in cell growth incubated for 72 hrs by MTT assay; type: functional, cell-based; conditions: MCF7, 72 h
[27] = system: Rattus norvegicus; experiment: Antiinflammatory activity against carrageenan-induced paw edema Sprague-Dawley rat model assessed as inhibition of inflammation at 50 mg/kg, po after 1 hr relative to control; type: functional; parameters: scale not given: the % may be the effect or the level left
[28] = Acute ulcerogenic activity in Sprague-Dawley male rat assessed as ulcer index at 50 mg/kg/day, po administered for 3 days; type: toxicity, organism-based; conditions: in vivo, 72 h, time 3 day
[29] = system: Rattus norvegicus; experiment: Antiinflammatory activity against carrageenan-induced paw edema Sprague-Dawley rat model assessed as inhibition of inflammation at 50 mg/kg, po after 5 hrs relative to control; type: functional; parameters: scale not given: the % may be the effect or the level left
[30] = system: Rattus norvegicus; experiment: Antiinflammatory activity against carrageenan-induced paw edema Sprague-Dawley rat model assessed as inhibition of paw edema by measuring edema thickness at 50 mg/kg, po measured after 3 hrs (reference value: 1.41 +/- 0.13 mm); type: functional
[31] = system: A2780; experiment: Cytotoxicity against human A2780 cells assessed as inhibition in cell growth incubated for 72 hrs by MTT assay; type: functional, cell-based; conditions: A2780, 72 h
[32] = system: HT-29; experiment: Induction of apoptosis in human HT-29 cells assessed as accumulation of cells at early apoptotic stage at 0.5 uM incubated for 24 hrs by Annexin V-FITC/propidium iodide staining based flow cytometry analysis (reference value: 0.1%); type: functional
[33] = system: HT-29; experiment: Induction of cell cycle arrest in human HT-29 cells assessed as increase the number of cells at S phase at 0.500 uM incubated for 24 hrs by propidium iodide staining based flow cytometry analysis relative to control; type: functional; conditions: dose 0.5 µM
[34] = Acute ulcerogenic activity in Sprague-Dawley male rat assessed as congestion in edema at 50 mg/kg/day, po administered for 3 days by hematoxylin and eosin staining method; type: toxicity, organism-based; conditions: in vivo, 72 h, time 3 day
[35] = system: HT-29; experiment: Induction of apoptosis in human HT-29 cells assessed as accumulation of cells at necrotic stage at 0.5 uM incubated for 24 hrs by Annexin V-FITC/propidium iodide staining based flow cytometry analysis (reference value: 8.1%); type: functional
[36] = system: HT-29; experiment: Induction of cell cycle arrest in human HT-29 cells assessed as increase the number of cells at G2/M phase at 0.500 uM incubated for 24 hrs by propidium iodide staining based flow cytometry analysis relative to control; type: functional; conditions: dose 0.5 µM
[37] = system: HT-29; experiment: Induction of apoptosis in human HT-29 cells assessed as accumulation of cells at viable stage at 0.5 uM incubated for 24 hrs by Annexin V-FITC/propidium iodide staining based flow cytometry analysis (reference value: 91.7%); type: functional
[38] = Acute ulcerogenic activity in Sprague-Dawley male rat assessed as change in normal non keratinized gastric mucosa at 50 mg/kg/day, po administered for 3 days by hematoxylin and eosin staining method; type: toxicity, organism-based, Stomach; conditions: in vivo, 72 h, time 3 day
[39] = system: HT-29; experiment: Anticlonogenic activity against human HT-29 cells assessed as reduction in number of colonies at 0.500 uM incubated for 24 hrs by clonogenic survival assay; type: functional, cell-based; conditions: dose 0.5 µM
[40] = Acute ulcerogenic activity in Sprague-Dawley male rat assessed as change in normal keratinized gastric mucosa at 50 mg/kg/day, po administered for 3 days by hematoxylin and eosin staining method; type: toxicity, organism-based, Stomach; conditions: in vivo, 72 h, time 3 day
[41] = Acute ulcerogenic activity in Sprague-Dawley male rat assessed as change in hyperactive glands at 50 mg/kg/day, po administered for 3 days by hematoxylin and eosin staining method; type: toxicity, organism-based, Stomach; conditions: in vivo, 72 h, time 3 day
[42] = system: HT-29; experiment: Anti-migration activity in human HT-29 cells assessed as suppression in cell migration at 0.500 uM incubated 48 hrs by wound-healing assay; type: functional, cell-based; conditions: dose 0.5 µM
[43] = Acute ulcerogenic activity in Sprague-Dawley male rat assessed as congestion in submucosa at 50 mg/kg/day, po administered for 3 days by hematoxylin and eosin staining method; type: toxicity, organism-based, Stomach; conditions: in vivo, 72 h, time 3 day
[44] = system: HT-29; experiment: Induction of apoptosis in human HT-29 cells assessed as accumulation of cells at late apoptotic stage at 0.5 uM incubated for 24 hrs by Annexin V-FITC/propidium iodide staining based flow cytometry analysis (reference value: 0.2%); type: functional

inhibition [3]	IC50 [11]	SMILES	selectivity ratio at 72 h [1]	Activity [2]	Activity [4]	selectivity ratio at 72 h [7]	IC50 [12]	Activity [13]	Activity [15]	IC50 at 72 h [16]	selectivity ratio at 72 h [17]	Activity [18]	Activity [19]	inhibition in vivo at 50 mg/kg [21]	Activity [22]	Activity [23]	Activity [24]	Activity [25]	IC50 [26]	Activity [27]	other results
Active	13400 nM	Cc1ccc(C2SCC(=O)N2c2ccc(OCC(=O)Nc3ccc(Cl)cc3)cc2)cc1 (stereo not drawn)	4.27	10%	3.33	23.5	20 nM	Active	Active	470 nM	2.61	0.73 mm	Active	51.6%	0.52 mm	2	32.7%	Active	110 nM	15.3%	Activity [5]: Active; Activity [6]: 41.1%; Activity [8]: 19.2%; Activity [9]: Active; Activity [10]: Non-Toxic; Activity [14]: 15.6%; Activity [20]: 24.1%; UI [28]: 15.33; Activity [29]: 47.48%; Activity [30]: 0.49 mm; IC50 [31]: 180 nM
inactive	2110 nM	Cc1ccc(C2SCC(=O)N2c2ccc(OCC(=O)Nc3ccc(F)cc3)cc2)cc1 (stereo not drawn)	3.04	10%	1.67	5.35	460 nM	Active	Active	2460 nM	0.23	0.57 mm	Active	57.2%	0.59 mm	2.6	32.7%	Active	810 nM	15.3%	Activity [32]: 10%; Activity [33]: 6.8%; Activity [34]: Toxic; Activity [35]: 7.7%; Activity [36]: 15.6%; Activity [37]: 76.2%; Activity [38]: Non-Toxic; Activity [39]: Active; Activity [40]: Non-Toxic; UI [28]: 14.27; Activity [41]: Non-Toxic; Activity [42]: Active; Activity [29]: 58.99%; Activity [30]: 0.55 mm; Activity [43]: Toxic; Activity [44]: 6.1%; IC50 [31]: 10500 nM
